Columns and labels:
[1] = test system: chemically regulatable chimeric genes coding for GUS, AHAS or BT; experiment: Primer extension assay for mRNA of chemically regulatable chimeric genes; format: in vivo; conditions: callus or regenerated plant material from transgenic plants; level proportional to amount of regulator applied
Experimental: 50 g of total RNA is lyophilized in a 500 l Eppendorf tube. The RNA is resuspended in 30 l of radiolabeled probe solution and heated to 70′ C. for 10 minutes. The tube is slowly cooled to 37° C. and allowed to incubate overnight. Without removing the tube from the 37° C. water bath, 2 l of 10×reverse-transcriptase buffer (500 mM Tris-HCl, pH 7.5, 400 mM KCl, 30 mM MgCl2), 1 l 5 mg/ml bovine serum albumin, 5 l 100 mM dithiothreitol, 5 l 10×dNTPs (10 mM of each dNTP in H2O), 3 l H 20, 2 l RNasin (80 units), and 2 l reverse transcriptase (400 units) are added and the reaction is incubated at 37° C. for 30 minutes. To stop the reaction, 5 l of 3 M sodium acetate, pH 5, and 150 l absolute ethanol are added. The tube is left at −20° C. for 30 minutes, the precipitate is collected by centrifugation, washed with 80% ethanol and allowed to air-dry. The precipitate is resuspended in 10-20 l of loading dye (90% formamide, 0.05% bromophenol blue, 0.05% xylene cyanol, 1 mM EDTA) and the extension products are separated on a 6% sequencing gel (Maniatis, T. et al., supra). Extension products are visualized by autoradiography.
Plant materials induced and harvested as in Examples 140 to 142 are assayed for the induction of mRNA species by the isolation of RNA and the primer extension assay as described in Example 6.
The level of mRNA is proportional to the amount of regulator applied.

[2] = test system: cucumber chitinase protein; experiment: Cucumber chitinase ELISA in transgenic plants carrying cucumber chitinase genomic constructs after leaf treatment; format: in vivo, tobacco; design: key: —: Indicates that sample has no detectable level of chitinase protein
Experimental: Once the transgenic plants are transferred to soil, they are grown 4-5 weeks before treatment. The following solutions are applied to the leaves with sterile paintbrushes:
3. Methyl benzo-1,2,3-thiadiazole-7-carboxylate. The solution is made by resuspending a wettable powder containing a formulation of the chemical with 25% active ingredient in sterile water at a concentration of 1 mg/ml.
4. Methyl 2,6-dichloroisonicotinate, prepared as above. Alternatively, 30 ul of 10 mM sodium phosphate buffer, pH 7.0, or 30 ul of the same buffer containing tobacco mosaic virus (50-100 pfu/30 ul) is applied to the leaves which have been sprinkled with carborundum. The buffers are distributed over the whole treated leaf by gentle rubbing.
The plants are allowed to continue to grow for seven days. The treated leaves are then harvested, frozen in liquid nitrogen and stored at −80° C. until they are assayed.
Frozen leaf tissue is ground in a mortar with a pestle in the presence of liquid nitrogen to produce a fine powder. 0.33 g of each tissue sample is added to 1 ml extraction buffer (50 mM Tris-HCl, pH 8.5, 0.2M 2-mercaptoethanol, 2 mM phenyl methyl sulfonyl fluoride, 2 mM benzamidine, 10 mM epsilon-aminocaproic acid, 1 mM leueptine) and the sample homogenized for one minute with an Ultra Turrax Mixer (shaft #S25N-8G, Tekmar Co. Cincinnati, Ohio). The samples are then centrifuged at 48,000×g for fifteen minutes at 4° C. and the supernatant removed from the pelleted material. The extracts are diluted at least 1:50 in ELISA diluent (101 mM sodium phosphate, pH 7.4, 140 mM sodium chloride, 0.05% Tween 20, 0.02% sodium azide, 1% BSA).
A microtiter plate is coated with monoclonal antibody specific to the cucumber chitinase protein at 2 ug/ml in borate-buffered saline (100 mM boric acid, 25mM sodium borate, 75 mM sodium chloride; pH 8.5) using 50 ul per well. The plate is incubated overnight at 4° C. The plate is washed with ELISA wash buffer (10 mM Tris-HCl, pH 8.0, 0.05% Tween 20, 3 mM sodium azide) and BSA blocking solution (10 mM sodium phosphate, pH 7.4, 140 mM sodium chloride, 0.02% sodium azide, 1% BSA) is added to completely cover each well. Incubation is for at least 30 minutes at room temperature.
The microtiter plate is washed with ELISA wash buffer and 50 ul of extract is added to the appropriate well. 50 ul of each of 10 chitinase protein standards (ranging from 0 ng/ml to 31.64 ng/ml) was also added to the appropriate well and the plate is incubated for two hours at 4° C. The plate is washed with ELISA wash buffer and 50 ul of rabbit polyclonal antibody to the cucumber chitainase protein (diluted 1:15,000 in ELISA diluent) is added to the well and incubated for one hour at 37° C. After washing with ELISA wash buffer, 50 ul of goat anti-rabbit conjugated to alkaline phosphatase (1:500 in ELISA diluent) is added to each well and incubated at 37° C. for one hour. The plate is then washed and 50 ul alkaline phosphatase substrate solution (0.6 mg/ml p-nitrophenyl phosphate in 0.5 mM magnesium chloride and 10% diethanolamine) is added to each well. After a 30 minute incubation at room temperature, 50 ul of 3N sodium hydroxide is added to each well to stop the reaction.
The plate is read at 405 nm and 492 nm on an HP Genenchem ELISA plate reader. The output values are expressed as A(405 nm)-A(492 nm)−0.092 to allow for correction of p-nitrophenyl phosphate as substrate. The chitinase standards for each plate are graphed logarithmically. The amount of chitinase protein in each sample is determined from the standard curve. If the amount of chitinase in any sample is close to the upper limit of the curve, the sample is assayed again at a greater dilution. Final results are expressed in the table below in ug chitinase per gram tissue.

O=C(O)c1ccccc1O [Salicylic acid, salicylic acid]
level of mRNA of the chimeric gene (GUS, AHAS or BT primer), primer extension assay [1]: elevated levels of mRNA
ELISA ASSAY RESULTS (ug chitinase/g tissue) ([2]; line Bam-1 (2001/BamChit), leaves harvested after seven days, water 0.066, buffer —): —
ELISA ASSAY RESULTS (ug chitinase/g tissue) ([2]; line Bam-3 (2001/BamChit), seven days, water —, buffer —): —
ELISA ASSAY RESULTS (ug chitinase/g tissue) ([2]; line Bam-4 (2001/BamChit), seven days, water —, buffer —): —
ELISA ASSAY RESULTS (ug chitinase/g tissue) ([2]; line Bam-8 (2001/BamChit), seven days, water —, buffer —): —
ELISA ASSAY RESULTS (ug chitinase/g tissue) ([2]; line Bam-9 (2001/BamChit), seven days, water —, buffer —): 0.522 ug chitinase/g tissue
ELISA ASSAY RESULTS (ug chitinase/g tissue) ([2]; line Bam-10 (2001/BamChit), seven days, water 0.059, buffer 0.084): 0.093 ug chitinase/g tissue
ELISA ASSAY RESULTS (ug chitinase/g tissue) ([2]; line Bam-12 (2001/BamChit), seven days, water —, buffer —): —
ELISA ASSAY RESULTS (ug chitinase/g tissue) ([2]; line Bam-14 (2001/BamChit), seven days, water —, buffer —): —
ELISA ASSAY RESULTS (ug chitinase/g tissue) ([2]; line Bam-15 (2001/BamChit), seven days, water —, buffer —): —
ELISA ASSAY RESULTS (ug chitinase/g tissue) ([2]; line Bam-16 (2001/BamChit), seven days, water —, buffer —): 0.690 ug chitinase/g tissue
ELISA ASSAY RESULTS (ug chitinase/g tissue) ([2]; line Bam-17 (2001/BamChit), seven days, water —, buffer —): —
ELISA ASSAY RESULTS (ug chitinase/g tissue) ([2]; line Bam-19 (2001/BamChit), seven days, water —, buffer —): 0.760 ug chitinase/g tissue
ELISA ASSAY RESULTS (ug chitinase/g tissue) ([2]; line Bam-21 (2001/BamChit), seven days, water —, buffer —): —
ELISA ASSAY RESULTS (ug chitinase/g tissue) ([2]; line Bam-23 (2001/BamChit), seven days, water —, buffer —): —
ELISA ASSAY RESULTS (ug chitinase/g tissue) ([2]; line Bam-24 (2001/BamChit), seven days, water —, buffer —): —
ELISA ASSAY RESULTS (ug chitinase/g tissue) ([2]; line Bam-25 (2001/BamChit), seven days, water —, buffer —): 0.522 ug chitinase/g tissue
ELISA ASSAY RESULTS (ug chitinase/g tissue) ([2]; line Bam-26 (2001/BamChit), seven days, water —, buffer —): —
ELISA ASSAY RESULTS (ug chitinase/g tissue) ([2]; line Nco-2 (2001/NcoChit), seven days, water —, buffer —): —
ELISA ASSAY RESULTS (ug chitinase/g tissue) ([2]; line Nco-3 (2001/NcoChit), seven days, water —, buffer —): —
ELISA ASSAY RESULTS (ug chitinase/g tissue) ([2]; line Nco-5 (2001/NcoChit), seven days, water —, buffer —): —
ELISA ASSAY RESULTS (ug chitinase/g tissue) ([2]; line Nco-8 (2001/NcoChit), seven days, water —, buffer —): —
ELISA ASSAY RESULTS (ug chitinase/g tissue) ([2]; line Nco-9 (2001/NcoChit), seven days, water —, buffer —): —
ELISA ASSAY RESULTS (ug chitinase/g tissue) ([2]; line Nco-10 (2001/NcoChit), seven days, water —, buffer —): —
ELISA ASSAY RESULTS (ug chitinase/g tissue) ([2]; line Nco-11 (2001/NcoChit), seven days, water —, buffer —): —
ELISA ASSAY RESULTS (ug chitinase/g tissue) ([2]; line Nco-15 (2001/NcoChit), seven days, water —, buffer —): —
ELISA ASSAY RESULTS (ug chitinase/g tissue) ([2]; line Nco-16 (2001/NcoChit), seven days, water 0.555, buffer 0.566): 0.555 ug chitinase/g tissue
ELISA ASSAY RESULTS (ug chitinase/g tissue) ([2]; line Nco-17 (2001/NcoChit), seven days, water —, buffer —): —
ELISA ASSAY RESULTS (ug chitinase/g tissue) ([2]; line Sal-2 (2001/SalChit), seven days, water —, buffer —): —
ELISA ASSAY RESULTS (ug chitinase/g tissue) ([2]; line Sal-3 (2001/SalChit), seven days, water —, buffer —): —
ELISA ASSAY RESULTS (ug chitinase/g tissue) ([2]; line Sal-4 (2001/SalChit), seven days, water —, buffer —): 0.047 ug chitinase/g tissue
ELISA ASSAY RESULTS (ug chitinase/g tissue) ([2]; line Sal-5 (2001/SalChit), seven days, water —, buffer —): —
ELISA ASSAY RESULTS (ug chitinase/g tissue) ([2]; line Sal-7 (2001/SalChit), seven days, water —, buffer —): —
ELISA ASSAY RESULTS (ug chitinase/g tissue) ([2]; line Sal-8 (2001/SalChit), seven days, water —, buffer —): —
ELISA ASSAY RESULTS (ug chitinase/g tissue) ([2]; line Sal-9 (2001/SalChit), seven days, water —, buffer —): 1.052 ug chitinase/g tissue
ELISA ASSAY RESULTS (ug chitinase/g tissue) ([2]; line Sal-11 (2001/SalChit), seven days, water —, buffer —): —
ELISA ASSAY RESULTS (ug chitinase/g tissue) ([2]; line Sal-12 (2001/SalChit), seven days, water —, buffer —): —
ELISA ASSAY RESULTS (ug chitinase/g tissue) ([2]; line Sal-13 (2001/SalChit), seven days, water —, buffer —): —
ELISA ASSAY RESULTS (ug chitinase/g tissue) ([2]; line Sal-14 (2001/SalChit), seven days, water —, buffer —): —
ELISA ASSAY RESULTS (ug chitinase/g tissue) ([2]; line Sal-15 (2001/SalChit), seven days, water —, buffer —): —

— patent publication US6632981B1, “DNA sequences encoding polypeptides having beta-1,3-glucanase activity” (Novartis Finance Corporation, priority 1988, dated 2003)
